Assay results reported in patent US11891386B2, “Indole compounds and their use” (ARIAGEN, INC., priority 2017, dated 2024).

How the values were obtained:
[1] = system: human hepatocytes; experiment: Hepatocyte intrinsic clearance assay, human hepatocytes; format: in vitro ADME; conditions: for CLint (μL/min/10^6 ells) / EH (%) hepatic extraction ratio: Human Hepatocytes; for CLint (μL/min/10^6 ells): 1 μM test compound; for EH (%) hepatic extraction ratio: well stirred liver model, fu=1
Text: The liver is an important organ in the body for drug metabolism. This Example describes hepatocyte intrinsic clearance assays using both human and mouse hepatocytes to evaluate the metabolic stability of the indole compounds disclosed herein. The parameters measured include t1/2 (half-life), CLint (intrinsic clearance), and EH (hepatic extraction ratio).
Testosterone (Lot FE111011-01) was obtained from Cerilliant (Round Rock, TX). 7-hydroxycoumarin (Lot 11631ED) was obtained from Sigma Aldrich (St. Louis, MO). Cryopreserved human hepatocytes pooled from ten donor males (X008001), cryopreserved male IRC/CD-1 mouse hepatocytes (M005052), INVITROGRO HI Medium (incubation), and INVITROGRO HT Medium (thawing) were obtained from Bioreclamation IVT (Baltimore, MD). All solvents were obtained from commercial sources and used without further purification.
Each test compound was prepared as a 1 mM stock solution in DMSO. A 2 μM solution of test compound and positive controls were prepared in INVITROGRO HI Medium (incubation). These solutions were pre-warmed in a sterile incubator set to maintain 37° C., 5% CO2, and 98% humidity. Cryopreserved hepatocytes were prepared at a concentration of 2×10^6 living cells/mL in incubation media and pre-warmed in the incubator. The compound solutions and hepatocyte mixtures were then combined at a ratio of 1:1 (v:v). The final volume of the reaction mixture was 750 μL, containing 1 μM test compound (10 μM for 7-hydroxycoumarin) and […]. The reaction mixture was placed in the incubator on a plate shaker. After 0, 15, 30, 60, 90, and 120 minutes of incubation, 100 μL of reaction mixtures were removed from the incubation plate and mixed with 150 μL of ice-cold acetonitrile in a designated well of a 96-well crash plate. The 96-well crash plate was placed on ice for 15 min, and samples were centrifuged (3,600 RPM, 10 min, 4° C.) to precipitate protein. The supernatants were diluted 1:1 (v:v) with water containing 0.15 μM verapamil and/or 1 μM tolbutamide (internal standards for positive and negative modes, respectively) in a 96-well shallow injection plate. This plate was sealed for LC-MS analysis. All measurements were done in duplicate.
The residual compound remaining (% R) was determined from LC-MS peak areas by comparison to the zero time point. Metabolic half-life (t1/2) and intrinsic clearance (CLint) values were calculated from the slope of the plot of ln (% R) vs. time and the concentration of hepatocytes present in the incubation. Percent remaining at 60 minutes was calculated by plugging in the 60 minute value into the slope equation generated by the percent remaining time points.
In vivo hepatic clearance CLH was calculated using the well stirred liver model according to the following equation:
[formula] where QH is the total liver blood flow, fu is unbound fraction of the drug, and CL′int is defined as follows: CL′int=CLint×(10^6 cells/g of liver weight)×(g liver weight/kg of body weight). In the first approximation, used in this study, fu=1.
Hepatic extraction ratio EH was calculated using the following equation:
[formula] Corresponding physiological parameters used in calculations for all species are shown below in Table 5.

[2] = system: IL-21 secretion from human CD4+ T cells; experiment: Suppression of IL-21 secretion by activated Th17 cells (ALPHALISA); format: cell-based; conditions: for IC50: 120 h, human CD4+ T cells under Th17 stimulation, 5 days; for potency in suppressing IL-21 secretion, in words: human CD4+ T cells
Text: IL-21 is a pro-inflammatory cytokine secreted by CD4^+ Th17 cells and is thought to serve as a T-cell growth factor playing overlapping roles with IL-2. This Example describes a study that measured the IC50 values of the indole compounds disclosed herein for suppressing IL-21 secretion from human CD4^+ T cells that had been treated with stimulatory conditions that gave rise to TH17 cells (see, e.g., Dobritsa et al., J Biomol Screen. 18(1):75-84 (2013)).
Human CD4^+ T cells were purchased from Lonza Walkersville Inc. (Walkersville, MD). DMSO was obtained from Sigma (St. Louis, MO). Greiner cell culture plates, Gibco DMEM cell culture medium, media supplements, and antibiotics, as well as DYNABEADS Human T-Activator CD3/CD28 and R&D Systems TGF-β, IL-1β and IL-23 and Invitrogen IL-6 cytokines, were purchased through Fisher Scientific (Pittsburgh, PA). ALPHALISA assay plates and the Human Interleukin-21 ALPHALISA kit was obtained from Perkin Elmer (Boston, MA).
Cell culture plates were pre-coated with test compounds in serial dilutions for generating a 10-point, 3-fold dose response curve with a top concentration of 1 μM or 100 nM. To do this, compounds were dissolved in DMSO and added to an ECHO qualified plate for transfer to the cell culture plate with the ECHO555. The indole compounds to be tested were dissolved in […] and wells were backfilled with DMSO so that all treatments received 0.1% DMSO final volume. Positive control (0% inhibition) wells, in which compounds were replaced with […], were included on each plate. At least 15×10^6 frozen CD4^+ T cells per plate of compounds were thawed in a 37° C. water bath, and the cells were washed twice with 10 mL of the complete medium (DMEM supplemented with 10% fetal bovine serum (FBS), 100 U/mL penicillin, and 100 μg/mL streptomycin), followed by centrifugation (250×g, 10 min). Cells were re-suspended to the desired density, and cultured in 384-well treated sterile cell culture plates in a total volume of 50 μL per well. Each plate included wells with induced and un-induced cells.
Induced cells were activated in the complete medium with DYNABEADS Human T-Activator CD3/CD28 at a bead-to-cell ratio of 1:2.5 and stimulated with the following cytokines: transforming growth factor-β (TGF-β, 5 ng/mL), IL-6 (20 ng/mL), IL-23 (20 ng/mL), and IL-1β (10 ng/mL).
Un-induced cells were left in complete medium with no additional supplements. Plates were incubated at 37° C., 5% CO2 for a total of 5 days. Upon completion of the 5 day incubation period, cells were spun down (1,000×g, 1 min) and supernatant was transferred to the ALPHALISA assay plate using the Mosquito HTS liquid handler (TTP Labtech Inc., Cambridge, MA).
IL-21 levels in cell supernatants and cell-free control samples were measured using the ALPHALISA assay kit from Perkin Elmer, following the manufacturer's instructions. The assay was run at room temperature in 384-well ALPHAPLATES (cat. 6005350; Boston, MA). Briefly, immediately after transferring the cell supernatant to the assay plate, anti-IL-21 acceptor beads were added with the CERTUS FLEX liquid handler (LEAP Technologies, Morrisville, NC). The plate was sealed, spun down and incubated for 30 minutes. After incubation, the seal was removed, anti-IL-21 biotinylated antibody was added with the CERTUS FLEX, and the plate was sealed again, spun down and incubated for 60 minutes. Next, the seal was removed, streptavidin-coated donor beads were added with the CERTUS FLEX, and the plate was sealed, spun down and incubated for another 60 minutes. Finally, the seal was removed and the plate was read using the ENVISION reader (Perkin Elmer, Boston, MA) set with an excitation filter of 680 nm and an emission filter of 615 nm. Two independent IL-21 standard dilution curves were run per plate with analyte provided in the ALPHALISA kit.
For estimation of the assay performance, Z′ values were calculated for each plate, comparing positive and negative controls. […]

SMILES | CLint (μL/min/10^6 ells) [1] | EH (%) hepatic extraction ratio [1] | clearance / metabolic profile, in words ([1]; human hepatocytes) | IC50 [2] | potency in suppressing IL-21 secretion, in words [2] | times more potent than ARI-087 ([2]; IL-21 secretion assay) | EH lower as compared to ARI-002, in words ([1]; human hepatocytes) | times lower clearance as compared to ARI-002 ([1]; human hepatocytes)
CNC(=O)c1csc(C(=O)c2c[nH]c3ccc(Cl)cc23)n1 [ARI-049, 2-(5-chloro-1H-indole-3-carbonyl)-N-methylthiazole-4-carboxamide] | 3.0 μL/min/10^6 ells | 27% | lower clearance and EH value | 10.1 nM |  |  |  | 
Cc1noc(-c2csc(C(=O)c3c[nH]c4ccccc34)n2)n1 [ARI-031, (1H-indol-3-yl)(4-(3-methyl-1,2,4-oxadiazol-5-yl)thiazol-2-yl)methanone] | 0.7 μL/min/10^6 ells | 8% | low clearance | 42.6 nM | among the least potent |  |  | 
CCC(=O)c1csc(C(=O)c2c[nH]c3c(F)cccc23)n1 [ARI-140, 1-(2-(7-fluoro-1H-indole-3-carbonyl)thiazol-4-yl)propan-1-one] | 3.5 μL/min/10^6 ells | 30% |  | 8.6 nM |  |  |  | 
COC(=O)c1csc(C(=O)c2c[nH]c3ccc(F)cc23)n1 [ARI-066, methyl 2-(5-fluoro-1H-indole-3-carbonyl)thiazole-4-carboxylate] | 98.7 μL/min/10^6 ells | 92% |  | 48.6 nM |  |  |  | 
O=C(c1nc(-c2nnco2)cs1)c1c[nH]c2ccccc12 [ARI-056, (4-(1,3,4-oxadiazol-2-yl)thiazol-2-yl)(1H-indol-3-yl)methanone] | 17.7 μL/min/10^6 ells | 68% |  | 4.9 nM |  |  |  | 
CNC(=O)c1csc(C(=O)c2c[nH]c3ccc(F)cc23)n1 [ARI-065, 2-(5-fluoro-1H-indole-3-carbonyl)-N-methylthiazole-4-carboxamide] | 7.6 μL/min/10^6 ells | 48% | lower clearance and EH value | 14 nM |  |  |  | 
NCc1nc(-c2csc(C(=O)c3c[nH]c4c(F)cccc34)n2)no1 [ARI-146, (4-(5-(aminomethyl)-1,2,4-oxadiazol-3-yl)thiazol-2-yl)(7-fluoro-1H-indol-3-yl)methanone] | 1.9 μL/min/10^6 ells | 19% |  | 13.4 nM |  |  |  | 
Cc1nc(-c2csc(C(=O)c3c[nH]c4ccccc34)n2)no1 [ARI-030, (1H-indol-3-yl)(4-(5-methyl-1,2,4-oxadiazol-3-yl)thiazol-2-yl)methanone] | 1.8 μL/min/10^6 ells | 18% |  | 40 nM | among the least potent |  |  | 
CCC(=O)c1csc(C(=O)c2c[nH]c3cccc(F)c23)n1 [ARI-142, 1-(2-(4-fluoro-1H-indole-3-carbonyl)thiazol-4-yl)propan-1-one] | 8.1 μL/min/10^6 ells | 50% |  | 209 nM | least active in suppressing IL-21 secretion |  |  | 
Nc1nnc(-c2csc(C(=O)c3c[nH]c4c(F)cccc34)n2)o1 [ARI-118, (4-(5-amino-1,3,4-oxadiazol-2-yl)thiazol-2-yl)(7-fluoro-1H-indol-3-yl)methanone] | 0.7 μL/min/10^6 ells | 8.4% | low clearance | 0.8 nM | most potent | about 32 times |  | 
CCC(=O)c1csc(C(=O)c2c[nH]c3cc(F)c(F)cc23)n1 [ARI-149, 1-(2-(5,6-difluoro-1H-indole-3-carbonyl)thiazol-4-yl)propan-1-one] | 5.3 μL/min/10^6 ells | 39% |  | 30.3 nM |  |  |  | 
Cc1nnc(-c2csc(C(=O)c3c[nH]c4ccccc34)n2)o1 [ARI-060, (1H-indol-3-yl)(4-(5-methyl-1,3,4-oxadiazol-2-yl)thiazol-2-yl)methanone] | 2.5 μL/min/10^6 ells | 24% |  | 110 nM | among the least potent |  |  | 
COC(=O)c1csc(C(=O)c2c[nH]c3ccccc23)n1 [ARI-001, ITE] | 220.4 μL/min/10^6 ells | 91% |  | 38.2 nM |  |  |  | 
CCC(=O)c1csc(C(=O)c2c[nH]c3ccc(F)cc23)n1 [ARI-087, 1-(2-(5-fluoro-1H-indole-3-carbonyl)thiazol-4-yl)propan-1-one] | 6.0 μL/min/10^6 ells | 43% |  | 25.4 nM |  |  | two times lower | 23 times
